Measurements reported in patent US9012628B2, “Crystalline form of ertapenem sodium and preparation method therefor” (CSPC Zhongqi Pharmaceutical Technology (Shijiazhuang) Co. …, priority 2010, dated 2015).

Experiment: Comparative tests for stability of the crystalline form E and other crystalline forms (storage, total impurity and content)
Assay type: physicochemical
Conditions: for Stability compared between solid forms (conclusion from Table 5): stored 1 year at 6° C. and −20° C.
Description: Comparative tests for stability of the crystalline form E and other crystalline forms. Crystalline form A and crystalline form B of ertapenem sodium were prepared according to the methods disclosed in WO03026572, crystalline form C of ertapenem sodium was prepared according to the method disclosed in WO03027067, crystalline form D of ertapenem sodium was prepared according to the method disclosed in WO2009150630, and amorphous product of ertapenem sodium was prepared according the method disclosed in CN1752090A. The above-mentioned crystalline forms A, B, C, D, the amorphous solid of ertapenem sodium, and the crystalline form E prepared according to Example 1 were stored for 1 year under refrigerating at 6° C. and freezing at −20° C., and were sampled at month 1, month 3, month 6, month 9, and month 12, respectively, and the total impurity and content of the reserved samples were tested, and the specific data are shown in Table 5: […]

Row | Content (Freezing −20° C., month 0) [%] | Total impurity (Freezing −20° C., month 0) [%] | Content (Freezing −20° C., month 3) [%] | Total impurity (Freezing −20° C., month 3) [%] | Content (Freezing −20° C., month 6) [%] | Total impurity (Freezing −20° C., month 6) [%] | Content (Freezing −20° C., month 9) [%] | Total impurity (Freezing −20° C., month 9) [%] | Content (Freezing −20° C., month 12) [%] | Total impurity (Freezing −20° C., month 12) [%] | Content (Refrigerating 6° C., month 0) [%] | Total impurity (Refrigerating 6° C., month 0) [%] | Content (Refrigerating 6° C., month 3) [%] | Total impurity (Refrigerating 6° C., month 3) [%] | Content (Refrigerating 6° C., month 6) [%] | Total impurity (Refrigerating 6° C., month 6) [%] | Content (Refrigerating 6° C., month 9) [%] | Total impurity (Refrigerating 6° C., month 9) [%] | Content (Refrigerating 6° C., month 12) [%] | Total impurity (Refrigerating 6° C., month 12) [%] | Structure (SMILES) | other results
1 | 99.1 | 0.8 | 99.0 | 0.8 | 99.1 | 0.8 | 99.0 | 0.8 | 98.9 | 0.8 | 99.1 | 0.8 | 98.5 | 1.3 | 98.1 | 1.6 | 97.5 | 2.1 | 96.8 | 3.2 | C[C@@H](O)[C@H]1C(=O)N2C(C(=O)[O-])=C(S[C@@H]3CN[C@H](C(=O)Nc4cccc(C(=O)O)c4)C3)[C@H](C)[C@H]12.[Na+] (relative stereo) [Crystalline form E, (1R,5S,6S,8R,2S*,4S*)-2-[2-[(3-carboxyphenyl)carbamoyl]-pyrrolidinyl-4-thio]-6-(1-hydroxyethyl)-1-methylcarbapenem-3-carboxylic acid monosodium salt] | Stability compared between solid forms (conclusion from Table 5): comparable stability, which is more stable than the amorphous product and the crystalline form D
2 | 98.5 | 1.2 | 98.4 | 1.2 | 98.5 | 1.3 | 98.2 | 1.5 | 98.1 | 1.7 | 98.5 | 1.2 | 97.9 | 2.1 | 94.5 | 5.3 | 92.3 | 7.1 | 90.1 | 9.3 | C[C@@H](O)[C@H]1C(=O)N2C(C(=O)[O-])=C(S[C@@H]3CN[C@H](C(=O)Nc4cccc(C(=O)O)c4)C3)[C@H](C)[C@H]12.[Na+] [Amorphous, ertapenem sodium] | 
3 | 99.2 | 0.7 | 99.2 | 0.7 | 99.1 | 0.7 | 99.2 | 0.7 | 99.1 | 0.7 | 99.2 | 0.7 | 98.6 | 1.2 | 98.1 | 1.5 | 97.6 | 2.0 | 96.9 | 3.0 | C[C@@H](O)[C@H]1C(=O)N2C(C(=O)[O-])=C(S[C@@H]3CN[C@H](C(=O)Nc4cccc(C(=O)O)c4)C3)[C@H](C)[C@H]12.[Na+] [Crystalline form A, ertapenem sodium] | Stability compared between solid forms (conclusion from Table 5): comparable stability, which is more stable than the amorphous product and the crystalline form D
4 | 99.1 | 0.8 | 99.1 | 0.8 | 99.0 | 0.9 | 99.0 | 0.8 | 98.9 | 0.9 | 99.1 | 0.8 | 98.3 | 1.4 | 98.0 | 1.7 | 97.5 | 2.1 | 96.6 | 3.3 | C[C@@H](O)[C@H]1C(=O)N2C(C(=O)[O-])=C(S[C@@H]3CN[C@H](C(=O)Nc4cccc(C(=O)O)c4)C3)[C@H](C)[C@H]12.[Na+] [Crystalline form B, ertapenem sodium] | Stability compared between solid forms (conclusion from Table 5): comparable stability, which is more stable than the amorphous product and the crystalline form D
5 | 99.2 | 0.8 | 99.2 | 0.8 | 99.1 | 0.8 | 99.2 | 0.8 | 99.2 | 0.8 | 99.2 | 0.8 | 98.7 | 1.1 | 98.2 | 1.4 | 97.8 | 1.9 | 96.9 | 3.0 | C[C@@H](O)[C@H]1C(=O)N2C(C(=O)[O-])=C(S[C@@H]3CN[C@H](C(=O)Nc4cccc(C(=O)O)c4)C3)[C@H](C)[C@H]12.[Na+] [Crystalline form C, ertapenem sodium] | Stability compared between solid forms (conclusion from Table 5): comparable stability, which is more stable than the amorphous product and the crystalline form D
6 | 98.8 | 1.0 | 98.7 | 1.1 | 98.7 | 1.1 | 98.6 | 1.2 | 98.5 | 1.2 | 98.8 | 1.0 | 98.0 | 1.9 | 96.8 | 3.1 | 94.7 | 4.6 | 93.2 | 6.5 | C[C@@H](O)[C@H]1C(=O)N2C(C(=O)[O-])=C(S[C@@H]3CN[C@H](C(=O)Nc4cccc(C(=O)O)c4)C3)[C@H](C)[C@H]12.[Na+] [Crystalline form D, ertapenem sodium] | 
